Key:
Assay in all cases: NCI-60 one-dose screen
Type in all cases: cell-based
[1] = test system: CCRF-CEM; conditions: Homo sapiens, Leukemia panel, single dose 10^−5 M, read-out: Growth inhibition %
[2] = test system: A498; conditions: Homo sapiens; A498, Renal Cancer panel; single dose 10^−5 M; read-out: Growth inhibition %
Description: (§1) The newly synthesized compounds were screened for their in vitro anticancer activity at the Developmental Therapeutic Program (DTP) of the National Cancer Institute (NCI). The screening involved a panel of 60 human tumor cell lines consisting of 9 tissue types to screen for potential anti-cancer agents. The primary screening of submitted compounds was performed by testing a single dose (10^−5 M) in the full NCI-60 panel. The detailed % inhibition by the tested compounds against the 60 cell lines is shown in Tables S1–S3 in the Supporting Information.

[3] = test system: BT-549; conditions: Homo sapiens; BT-549, Breast Cancer panel; single dose 10^−5 M; read-out: Growth inhibition %
Description: as §1

[4] = test system: COLO 205; conditions: Homo sapiens; COLO 205, Colon Cancer panel; single dose 10^−5 M; read-out: Growth inhibition %
Description: as §1

[5] = test system: DU-145; conditions: Homo sapiens; DU-145, Prostate Cancer panel; single dose 10^−5 M; read-out: Growth inhibition %
Description: as §1

[6] = test system: EKVX; conditions: Homo sapiens, Non-small cell lung panel, single dose 10^−5 M, read-out: Growth inhibition %
Description: as §1

[7] = test system: HCC-2998; conditions: Homo sapiens; HCC-2998, Colon Cancer panel; single dose 10^−5 M; read-out: Growth inhibition %
Description: as §1

[8] = test system: HCT-15; conditions: Homo sapiens; HCT-15, Colon Cancer panel; single dose 10^−5 M; read-out: Growth inhibition %
Description: as §1

[9] = test system: HT29; conditions: Homo sapiens, HT-29; HT29, Colon Cancer panel; single dose 10^−5 M; read-out: Growth inhibition %
Description: as §1

[10] = test system: K-562; conditions: Homo sapiens, K562; K-562, Leukemia panel; single dose 10^−5 M; read-out: Growth inhibition %
Description: as §1

[11] = test system: KM12; conditions: Homo sapiens; KM12, Colon Cancer panel; single dose 10^−5 M; read-out: Growth inhibition %
Description: as §1

[12] = test system: M14; conditions: Homo sapiens; M14, Melanoma panel; single dose 10^−5 M; read-out: Growth inhibition %
Description: as §1

[13] = test system: MALME-3M; conditions: Homo sapiens, Melanoma panel, single dose 10^−5 M, read-out: Growth inhibition %
Description: as §1

[14] = test system: NCI-H226; conditions: Homo sapiens; NCI-H226, Non-small cell lung panel; single dose 10^−5 M; read-out: Growth inhibition %
Description: as §1

[15] = test system: OVCAR-5; conditions: Homo sapiens; OVCAR-5, Ovarian Cancer panel; single dose 10^−5 M; read-out: Growth inhibition %
Description: as §1

[16] = test system: OVCAR-8; conditions: Homo sapiens; OVCAR-8, Ovarian Cancer panel; single dose 10^−5 M; read-out: Growth inhibition %
Description: as §1

[17] = test system: PC-3; conditions: Homo sapiens; PC-3, Prostate Cancer panel; single dose 10^−5 M; read-out: Growth inhibition %
Description: as §1

[18] = test system: RPMI-8226; conditions: Homo sapiens; RPMI-8226, Leukemia panel; single dose 10^−5 M; read-out: Growth inhibition %
Description: as §1

[19] = test system: RXF 393; conditions: Homo sapiens; RXF 393, Renal Cancer panel; single dose 10^−5 M; read-out: Growth inhibition %
Description: as §1

[20] = test system: SF-295; conditions: Homo sapiens; SF-295, CNS Cancer panel; single dose 10^−5 M; read-out: Growth inhibition %
Description: as §1

[21] = test system: SF-539; conditions: Homo sapiens; SF-539, CNS Cancer panel; single dose 10^−5 M; read-out: Growth inhibition %
Description: as §1

[22] = test system: SK-MEL-2; conditions: Homo sapiens; SK-MEL-2, Melanoma panel; single dose 10^−5 M; read-out: Growth inhibition %
Description: as §1

[23] = test system: SK-MEL-5; conditions: Homo sapiens; SK-MEL-5, Melanoma panel; single dose 10^−5 M; read-out: Growth inhibition %
Description: as §1

[24] = test system: SK-OV-3; conditions: Homo sapiens; SK-OV-3, Ovarian Cancer panel; single dose 10^−5 M; read-out: Growth inhibition %
Description: as §1

[25] = test system: SNB-19; conditions: Homo sapiens; SNB-19, CNS Cancer panel; single dose 10^−5 M; read-out: Growth inhibition %
Description: as §1

[26] = test system: SR; conditions: Homo sapiens, Leukemia panel, single dose 10^−5 M, read-out: Growth inhibition %
Description: as §1

[27] = test system: SW-620; conditions: Homo sapiens; SW-620, Colon Cancer panel; single dose 10^−5 M; read-out: Growth inhibition %
Description: as §1

[28] = test system: T-47D; conditions: Homo sapiens, T47D, Breast Cancer panel, single dose 10^−5 M, read-out: Growth inhibition %
Description: as §1

[29] = test system: TK-10; conditions: Homo sapiens; TK-10, Renal Cancer panel; single dose 10^−5 M; read-out: Growth inhibition %
Description: as §1

[30] = test system: U251; conditions: Homo sapiens, U-251; U251, CNS Cancer panel; single dose 10^−5 M; read-out: Growth inhibition %
Description: as §1

[31] = test system: UACC-257; conditions: Homo sapiens; UACC-257, Melanoma panel; single dose 10^−5 M; read-out: Growth inhibition %
Description: as §1

[32] = test system: UACC-62; conditions: Homo sapiens; UACC-62, Melanoma panel; single dose 10^−5 M; read-out: Growth inhibition %
Description: as §1

Structure (SMILES)	inhibition at 10 µM [1] [%]	inhibition at 10 µM [2] [%]	inhibition at 10 µM [3] [%]	inhibition at 10 µM [4] [%]	inhibition at 10 µM [5] [%]	inhibition at 10 µM [6] [%]	inhibition at 10 µM [7] [%]	inhibition at 10 µM [8] [%]	inhibition at 10 µM [9] [%]	inhibition at 10 µM [10] [%]	inhibition at 10 µM [11] [%]	inhibition at 10 µM [12] [%]	inhibition at 10 µM [13] [%]	inhibition at 10 µM [14] [%]	inhibition at 10 µM [15] [%]	inhibition at 10 µM [16] [%]	inhibition at 10 µM [17] [%]	inhibition at 10 µM [18] [%]	inhibition at 10 µM [19] [%]	inhibition at 10 µM [20] [%]	other results
Clc1ccccc1CNc1c2ccccc2nc2ccccc12 [Compound 11, Acridin-9-yl-(2-chlorobenzyl)-amine]	89.3	106	61.9	99.5	68.2	74.1	117	86.4	94.5	94.7	78	81.9	81	61.1	67.4	76.2	82.9	127	85	78.3	inhibition at 10 µM [21]: 93.8%; inhibition at 10 µM [22]: 44.4%; inhibition at 10 µM [23]: 58.2%; inhibition at 10 µM [24]: 45.1%; inhibition at 10 µM [25]: 74.2%; inhibition at 10 µM [26]: 99.5%; inhibition at 10 µM [27]: 90.4%; inhibition at 10 µM [28]: 69.5%; inhibition at 10 µM [29]: 57.5%; inhibition at 10 µM [30]: 76.8%; inhibition at 10 µM [31]: 55.7%; inhibition at 10 µM [32]: 59%
Clc1cccc(CNc2c3ccccc3nc3ccccc23)c1 [Compound 12, Acridin-9-yl-(3-chlorobenzyl)-amine]	81.9	103	40.9	99.5	68.3	72.8	154	86	91.4	95	59.2	64.5	55	52	67.6	68.9	76.5	124	81	79.2	inhibition at 10 µM [21]: 90.7%; inhibition at 10 µM [22]: 22.7%; inhibition at 10 µM [23]: 33.8%; inhibition at 10 µM [24]: 36.1%; inhibition at 10 µM [25]: 73.6%; inhibition at 10 µM [26]: 104%; inhibition at 10 µM [27]: 88%; inhibition at 10 µM [28]: 59.1%; inhibition at 10 µM [29]: 47.9%; inhibition at 10 µM [30]: 77.3%; inhibition at 10 µM [31]: 54.6%; inhibition at 10 µM [32]: 47.5%
Clc1ccc(CNc2c3ccccc3nc3ccccc23)cc1 [Compound 13, Acridin-9-yl-(4-chlorobenzyl)-amine]	69.8	79.2	29.1	91.4	45.2	37.4	110	76.7	85	95.7	64.4	46.7	60.4	24.5	49.5	68.1	61.3	92	70.3	40.4	inhibition at 10 µM [21]: 69.7%; inhibition at 10 µM [22]: 27.6%; inhibition at 10 µM [23]: 38.8%; inhibition at 10 µM [24]: 40%; inhibition at 10 µM [25]: 56.9%; inhibition at 10 µM [26]: 97.7%; inhibition at 10 µM [27]: 69%; inhibition at 10 µM [28]: 56.6%; inhibition at 10 µM [29]: 50.3%; inhibition at 10 µM [30]: 53.8%; inhibition at 10 µM [31]: 23.9%; inhibition at 10 µM [32]: 29.3%
c1coc(CNc2c3ccccc3nc3ccccc23)c1 [Compound 14, Acridin-9-yl-furan-2-ylmethyl-amine]	42.9	79.9	2.59	64.8	24	38	31.1	55.8	64.9	55.3	14.5	20.3	9.63	37.1	23.6	52.5	33	43.4	38.5	46.1	inhibition at 10 µM [21]: 34.1%; inhibition at 10 µM [22]: -1.22%; inhibition at 10 µM [23]: 15.7%; inhibition at 10 µM [24]: 29.1%; inhibition at 10 µM [25]: 37.2%; inhibition at 10 µM [26]: 66%; inhibition at 10 µM [27]: 57.7%; inhibition at 10 µM [28]: 30.7%; inhibition at 10 µM [29]: 11.6%; inhibition at 10 µM [30]: 34.9%; inhibition at 10 µM [31]: 18.3%; inhibition at 10 µM [32]: 33.9%
COc1cccc(CNc2c3ccccc3nc3ccccc23)c1OC [Compound 16, Acridin-9-yl-(2,3-dimethoxybenzyl)-amine]	60.5	104	40.3	78.5	58.2	63.7	61.7	80.2	85.6	84.5	47.6	65.5	49.4	48.4	57	60.8	62.4	83	70.1	67	inhibition at 10 µM [21]: 81.1%; inhibition at 10 µM [22]: 20.8%; inhibition at 10 µM [23]: 44.2%; inhibition at 10 µM [24]: 34%; inhibition at 10 µM [25]: 64.5%; inhibition at 10 µM [26]: 82.5%; inhibition at 10 µM [27]: 74.6%; inhibition at 10 µM [28]: 52.5%; inhibition at 10 µM [29]: 40.5%; inhibition at 10 µM [30]: 65.5%; inhibition at 10 µM [31]: 45.2%; inhibition at 10 µM [32]: 48.7%
